The source made the active and inactive calls. The rule behind the calls is not given here.
Experiments:
[1] = Selectivity index, ratio of IC50 for human L02 cells to IC50 for human HepG2 cells; type: toxicity; conditions: L02 cells versus HepG2 cells, read-out: Ratio IC50
A549 = test: Antiproliferative activity against human A549 cells assessed as inhibition of cell proliferation measured after 72 hrs by MTT assay; type: functional, cell-based; conditions: A549, 72 h
[2] = Selectivity index, ratio of IC50 for human L02 cells to IC50 for human HePAD38 cells
[3] = Antiproliferative activity against human HePAD38 cells assessed as inhibition of cell proliferation measured after 72 hrs by MTT assay; type: functional, cell-based; conditions: HePAD38, 72 h
L02 [4] = test: Cytotoxicity against human L02 cells assessed as cell viability measured after 72 hrs by MTT assay; type: cell-based; conditions: L02, 72 h
[5] = Selectivity index, ratio of IC50 for human CCD 19Lu cells to IC50 for human HePAD38 cells
[6] = Selectivity index, ratio of IC50 for human CCD 19Lu cells to IC50 for human HepG2 cells; type: toxicity; conditions: CCD 19Lu cells versus HepG2 cells, read-out: Ratio IC50
BEAS-2B = test: Antiproliferative activity against human BEAS-2B cells assessed as inhibition of cell proliferation measured after 72 hrs by MTT assay; type: functional, cell-based
HepG2 [7] = test: Antiproliferative activity against human HepG2 cells assessed as inhibition of cell proliferation measured after 72 hrs by MTT assay; type: functional, cell-based; conditions: HepG2, 72 h
HepG2 [8] = test: Induction of apoptosis in human HepG2 cells assessed as viable cells at 1 uM measured after 24 hrs by Annexin-V/PI staining based flow cytometry assay (reference value: 99.1%); type: functional; conditions: read-out: Activity
L02 [9] = test: Induction of apoptosis in human L02 cells assessed as necrotic cells at 1 uM measured after 24 hrs by Annexin-V/PI staining based flow cytometry assay (reference value: 0.848%); type: cell-based; conditions: l02, 24 h
HepG2 [10] = test: Induction of apoptosis in human HepG2 cells assessed as necrotic cells at 1 uM measured after 24 hrs by Annexin-V/PI staining based flow cytometry assay (reference value: 0.725%); type: functional
L02 [11] = test: Induction of apoptosis in human L02 cells assessed as late apoptotic cells at 1 uM measured after 24 hrs by Annexin-V/PI staining based flow cytometry assay (reference value: 0.133%); type: cell-based; conditions: l02, 24 h
[12] = Induction of apoptosis in human HePAD38 cells assessed as early apoptotic cells at 1 uM measured after 24 hrs by Annexin-V/PI staining based flow cytometry assay (reference value: 0.158%); type: functional
HeLa [13] = test: Inhibition of human SERCA in human HeLa cells assessed as alteration of calcium dynamics at 1 uM preincubated with compound C measured after 2 hrs by FLIPR calcium assay; type: cell-based
HepG2 [14] = test: Induction of apoptosis in human HepG2 cells assessed as late apoptotic cells at 1 uM measured after 24 hrs by Annexin-V/PI staining based flow cytometry assay (reference value: 0.016%); type: functional
HepG2 [15] = test: Induction of apoptosis in human HepG2 cells assessed as early apoptotic cells at 1 uM measured after 24 hrs by Annexin-V/PI staining based flow cytometry assay (reference value: 0.181%); type: functional
HeLa [16] = test: Inhibition of human SERCA in human HeLa cells assessed as depletion of SERCA-dependent calcium storage at 1 uM preincubated with TG by FLIPR calcium assay; type: cell-based
[17] = Induction of apoptosis in human HePAD38cells assessed as late apoptotic cells at 1 uM measured after 24 hrs by Annexin-V/PI staining based flow cytometry assay (reference value: 0.032%); type: functional, HePAD38
L02 [18] = test: Induction of apoptosis in human L02 cells assessed as early apoptotic cells at 1 uM measured after 24 hrs by Annexin-V/PI staining based flow cytometry assay (reference value: 1.49%); type: cell-based; conditions: l02, 24 h
[19] = Induction of apoptosis in human L02 cells assessed as viable cells at 1 uM measured after 24 hrs by Annexin-V/PI staining based flow cytometry assay (reference value: 97.5%); type: cell-based; conditions: read-out: Activity
HeLa [20] = test: Inhibition of human SERCA in human HeLa cells assessed as alteration of calcium dynamics at 1 uM measured by FLIPR calcium assay; type: cell-based
[21] = Induction of apoptosis in human HePAD38 cells assessed as viable cells at 1 uM measured after 24 hrs by Annexin-V/PI staining based flow cytometry assay (reference value: 98.9%); type: functional; conditions: read-out: Activity
[22] = Induction of apoptosis in human HePAD38 cells assessed as necrotic cells at 1 uM measured after 24 hrs by Annexin-V/PI staining based flow cytometry assay (reference value: 0.903%); type: functional

SMILES	selectivity ratio [1]	IC50 (A549) [µM]	Ratio IC50 [2]	IC50 [3] [µM]	IC50 (L02 [4]) [µM]	Ratio IC50 [5]	selectivity ratio [6]	IC50 (BEAS-2B) [µM]	IC50 (HepG2 [7]) [µM]	other results
CC1=C(O)C(=O)C=C2C1=CC=C1[C@@]2(C)CC[C@@]2(C)[C@@H]3C[C@](C)(C(=O)NC(CC(=O)NC(CCC(=O)OC(C)(C)C)C(=O)OC(C)(C)C)C(=O)OC(C)(C)C)CC[C@]3(C)CC[C@]12C (stereo not given in full)	3.43	19.3	7.27	4.15	30.2	2.28	1.07	3.22	8.78	–
CC1=C(O)C(=O)C=C2C1=CC=C1[C@@]2(C)CC[C@@]2(C)[C@@H]3C[C@](C)(C(=O)NC(CC(=O)OC(C)(C)C)C(=O)NC(CCC(=O)OC(C)(C)C)C(=O)OC(C)(C)C)CC[C@]3(C)CC[C@]12C (stereo not given in full)	2.23	37.7	2.67	17	45.4	0.61	0.51	6.87	20.3	–
CC1=C(O)C(=O)C=C2C1=CC=C1[C@@]2(C)CC[C@@]2(C)[C@@H]3C[C@](C)(C(=O)NC(CCC(=O)OC(C)(C)C)C(=O)OC(C)(C)C)CC[C@]3(C)CC[C@]12C (stereo not given in full)	–	4.2	–	1.54	4.23	–	–	0.62	2.52	–
COC(=O)CCNC(=O)[C@]1(C)CC[C@]2(C)CC[C@]3(C)C4=CC=C5C(=CC(=O)C(O)=C5C)[C@]4(C)CC[C@@]3(C)[C@@H]2C1	–	1.91	–	–	0.55	–	–	0.32	1.04	–
CC1=C(O)C(=O)C=C2C1=CC=C1[C@@]2(C)CC[C@@]2(C)[C@@H]3C[C@](C)(C(=O)NCCCNC(=O)[C@@]4(C)CC[C@@]5(C)CC[C@@]6(C)C7=CC=C8C(=CC(=O)C(O)=C8C)[C@@]7(C)CC[C@]6(C)[C@H]5C4)CC[C@]3(C)CC[C@]12C	–	2.45	–	–	1.65	–	–	0.41	1.17	–
CC1=C(O)C(=O)C=C2C1=CC=C1[C@@]2(C)CC[C@@]2(C)[C@@H]3C[C@](C)(C(=O)NC(CC(=O)NC(CC(=O)OC(C)(C)C)C(=O)OC(C)(C)C)C(=O)OC(C)(C)C)CC[C@]3(C)CC[C@]12C (stereo not given in full)	2.39	9.85	4.21	4.54	19.1	1.07	0.61	2.18	7.98	–
CC1=C(O)C(=O)C=C2C1=CC=C1[C@@]2(C)CC[C@@]2(C)[C@@H]3C[C@](C)(C(=O)NCCCNC(=O)OC(C)(C)C)CC[C@]3(C)CC[C@]12C	–	4.88	–	–	3.27	–	–	0.57	1.95	–
CC1=C(O)C(=O)C=C2C1=CC=C1[C@@]2(C)CC[C@@]2(C)[C@@H]3C[C@](C)(C(=O)NC(CCC(=O)NC(CCC(=O)OC(C)(C)C)C(=O)OC(C)(C)C)C(=O)OC(C)(C)C)CC[C@]3(C)CC[C@]12C (stereo not given in full)	2.23	6.19	2.01	4.74	9.55	12	13.4	38.6	4.27	viability at 1 µM (HepG2 [8]): 80.2%; Activity (L02 [9]): 1.64%; Activity (HepG2 [10]): 7.33%; Activity (L02 [11]): 5.44%; Activity [12]: 1.85%; inhibition (HeLa [13]): Active; Activity (HepG2 [14]): 11%; Activity (HepG2 [15]): 1.55%; inhibition (HeLa [16]): Active; Activity [17]: 4.17%; Activity (L02 [18]): 6.2%; viability at 24 h, 1 µM [19]: 86.7%; inhibition (HeLa [20]): Active; viability at 1 µM [21]: 80.3%; Activity [22]: 13.7%
CC1=C(O)C(=O)C=C2C1=CC=C1[C@@]2(C)CC[C@@]2(C)[C@@H]3C[C@](C)(C(=O)O)CC[C@]3(C)CC[C@]12C [CELASTROL]	0.82	2.83	0.42	1.85	0.78	0.48	0.96	0.454	0.94	viability at 1 µM (HepG2 [8]): 79.6%; Activity (L02 [9]): 0.823%; Activity (HepG2 [10]): 1.61%; Activity (L02 [11]): 15.5%; Activity [12]: 4.73%; inhibition (HeLa [13]): Active; Activity (HepG2 [14]): 10%; Activity (HepG2 [15]): 8.7%; inhibition (HeLa [16]): Active; Activity [17]: 10.5%; Activity (L02 [18]): 12.9%; viability at 24 h, 1 µM [19]: 70.8%; inhibition (HeLa [20]): Active; viability at 1 µM [21]: 75.3%; Activity [22]: 9.47%
CC1=C(O)C(=O)C=C2C1=CC=C1[C@@]2(C)CC[C@@]2(C)[C@@H]3C[C@](C)(C(=O)NC(CC(=O)OC(C)(C)C)C(=O)NC(CC(=O)OC(C)(C)C)C(=O)OC(C)(C)C)CC[C@]3(C)CC[C@]12C (stereo not given in full)	4.6	2.75	12.75	0.44	5.61	5	1.81	0.786	1.22	viability at 1 µM (HepG2 [8]): 69.7%; Activity (L02 [9]): 2.14%; Activity (HepG2 [10]): 12.4%; Activity (L02 [11]): 11.7%; Activity [12]: 2.27%; inhibition (HeLa [13]): Active; Activity (HepG2 [14]): 14.5%; Activity (HepG2 [15]): 3.45%; inhibition (HeLa [16]): Active; Activity [17]: 18.5%; Activity (L02 [18]): 3.62%; viability at 24 h, 1 µM [19]: 82.6%; inhibition (HeLa [20]): Active; viability at 1 µM [21]: 73.6%; Activity [22]: 5.58%
CC1=C(O)C(=O)C=C2C1=CC=C1[C@@]2(C)CC[C@@]2(C)[C@@H]3C[C@](C)(C(=O)NC(CC(=O)OC(C)(C)C)C(=O)OC(C)(C)C)CC[C@]3(C)CC[C@]12C (stereo not given in full)	–	4.92	–	11.8	15.4	–	–	3.72	3.56	–
CC1=C(O)C(=O)C=C2C1=CC=C1[C@@]2(C)CC[C@@]2(C)[C@@H]3C[C@](C)(C(=O)NC(CCC(=O)N(CC(=O)OC(C)(C)C)C(=O)OC(C)(C)C)C(=O)OC(C)(C)C)CC[C@]3(C)CC[C@]12C (stereo not given in full)	1.52	3.4	0.91	2.55	2.34	3.4	5.96	1.33	1.54	–
